The subject of experiment [1] is GLAST mRNA. Description: Real Time RT-PCR of cultured astrocytes, GLAST mRNA. In kind it is cell-based, rat. On the procedure:
After approximately 14 days (2 days after subplating into plates, DIV 14) astrocytes had formed a confluent monolayer. […] Phase contrast microscopy was then carried out in order to assess the morphology of cells after the various treatments. Length of astrocyte processes was quantified by measuring all processes in 2-3 phase contrast images/group by an independent observer, blinded to the treatment groups using Image J v1.34s (National Institutes of Health, Bethesda, Md.).
Total RNA was isolated from astrocyte cultures using the Qiagen RNeasy mini-kit (Qiagen Inc., Valencia, Calif.) according to the manufacturer's protocol for isolation of total RNA from animal cells. Reverse transcription (RT) was carried out using the high-capacity cDNA archive kit (Applied Biosystems, Foster City, Calif.) according to the vendor's protocol. Real-time RT-PCR reactions were carried out in a total reaction volume of 25 μL containing a final concentration of 1.5 U Platinum Taq DNA polymerase (Invitrogen Corporation, Carlsbad, Calif.); 20 mM Tris HCl (pH 8.4); 50 mM KCl; 3 mM MgCl2; 200 μM dGTP, dCTP, and dATP; 400 μM dUTP and 1 U of UDG (uracyl DNA glycosylase); 900 nM of forward and reverse primers; 300 nM Taqman probe; and 5 μL of cDNA (50 ng) from the RT step. The iCycler™ Multicolor Real-Time PCR detection system (Bio-Rad Laboratories, Hercules, Calif.) was used to quantify PCR product. The fluorescence and threshold values (CT) obtained were used to compare the relative amount of target mRNA in experimental groups to those of controls using the 2^−ΔΔC^T method (Livak, K. J. and T. D. Schmittgen. 2001. Methods 25:402-408). Each experiment was run twice and samples were run in duplicate. For each sample, the mean CT value for the control gene (GAPDH) was then subtracted from the mean CT value for the gene of interest (GLT-1, GLAST) to obtain a ΔCT value. […] The relative fold change from control was then expressed by calculation of 2^−ΔΔC^T for each sample and the results are expressed as the group mean fold change±SEM.

Experiment [2] relates to L5 spinal nerve transected rats. Kind of experiment: Mechanical allodynia after L5 spinal nerve transection in rats. Type of experiment: in vivo, rat. The method, then:
Male Sprague Dawley rats (Harlan, Indianapolis, Ind.) weighing 150-175 g at the start of surgery were housed individually and maintained in a 12:12 light/dark cycle with ad libitum access to food and water. The animals were allowed to habituate to the housing facilities for 1 week before experiments began. Behavioral studies were performed in a quiet room between the hours of 7:00 and 10:00 A.M. The Institutional Animal Care and Use Committee at Dartmouth College approved all procedures in this study. Efforts were made to limit animal distress and use the minimum number of animals necessary to achieve statistical significance, in accord with guidelines set forth by the International Association for the Study of Pain.
Unilateral mononeuropathy was produced according to the method described by Colburn et al. (1999. Exp. Neurol. 157:289-304). Briefly, rats were anesthetized by inhalation of halothane in an O2 carrier (induction, 4%; maintenance, 2%). […] The L6 transverse process was partially removed, exposing the L4 and L5 spinal nerves. The L5 spinal nerve was identified, separated, lifted, and transected, followed by removal of a 3-mm distal segment of nerve to prevent reconnection. […]
Mechanical sensitivity to non-noxious stimuli was measured by applying 2 g and 12 g von Frey filaments (Stoelting, Wood Dale, Ill.) to the plantar surface of the ipsilateral hind paw (n=8-12/group). […]

The subject of experiment [3] is L5 spinal nerve transected mice. Description: Mechanical allodynia after L5 spinal nerve transection in eGFP-GLT-1/DsRed-GLAST transgenic mice. Conditions: for first day on which inhibition of mechanical allodynia was evident: 10 mg/kg i.p. daily. In kind it is in vivo, mouse. The method, then: In addition to studies using a rat model of pain for examining the role of glutamate transporters in the therapeutic response (analgesic) of propentofylline treatment, studies were also performed in a double transgenic reporter mouse line that expressed eGFP-GLT-1/DsRed-GLAST. Use of the transgenic mouse model further defined the effect of propentofylline on glutamate transporters, GLT-1 and GLAST. The animals were injected intraperitoneally with 10 mg/kg propentofylline in sterile saline or saline vehicle alone (n=5 to 8 per group). The first injections were administered one hour prior to L5 spinal nerve transection and continued daily in the evening (between 5 and 7 PM) until day 12 post-transection. Mice received either an L5 spinal nerve transection or sham surgery on day 0. The development of mechanical allodynia was monitored on days 1, 3, 5, 7, 9 and 12 as described for rats previously. The monitoring was performed in the morning at approximately 15 hours post-propentofylline or saline injection. Mice were transcardially perfused on day 12 post-transection, spinal cords were removed, and the tissue was processed for immunohistochemistry.
Transgenic mice on a C57B1/6 background were created according to the methods previously described (Regan et al. 2006. J. Neuroscience, in press). Briefly, in order to determine where in the central nervous system GLAST is expressed, transgenic mice were created using a bacterial artificial chromosome containing the GLAST gene plus 18 kb of DNA upstream of the first exon and 60 kb downstream of the last exon. DsRed cDNA was inserted into the first exon to allow expression of DsRed instead of GLAST when the promoter is active. Similarly, in order to investigate the distribution of GLT-1, transgenic mice expressing GLT-1 with eGFP running from the promoter were also created. These two types of transgenic mice were crossed and the resultant double transgenic eGFP-GLT-1/DsRed-GLAST mice were used in the experiments at 8 to 10 weeks of age.

SMILES strings stand for the structures. Entries after “also recorded” stand apart in the source; their conditions may differ.

Here are results for 1 molecule from patent US20090227606A1, “Methods for Preventing or Treating Acute and Chronic Pain” (priority 2006, published 2009).

In the case of `CCCn1cnc2c1c(=O)n(CCCCC(C)=O)c(=O)n2C` [propentofylline], the “increase in GLAST mRNA” value in experiment [1] (both days 3 and 7) is on record as 1.5-2 fold. Also, the “GLAST mRNA level, in words” value in experiment [1] (propentofylline 10, 100, 1000 μM, db-cAMP 250 μM, relative to GAPDH) is “enhancement of GLT-1 and GLAST mRNA levels in a dose-dependent manner; also recorded: dose-dependently induced GLT-1 and GLAST at the mRNA level”. For the same molecule, in experiment [2] (10 μg daily via lumbar puncture, from one hour prior to transection, vs. L5 saline), the “mechanical allodynia (paw withdrawals to 12 g von Frey filament)” value is listed as “significant decrease in mechanical allodynia; also recorded: robustly inhibited the development of mechanical allodynia at all time points tested”. Further, the “mechanical allodynia compared with normal group” value in experiment [2] (from day 5 onward (day 5, 7, 9 and 12), P>0.05) is given as “no longer discernable from the normal group”. Further, the results for the “first day on which inhibition of mechanical allodynia was evident” value in experiment [3] (0.008 g filament) and in experiment [3] (0.02 g filament) were 3 days and 1 days, respectively. In experiment [3] (10 mg/kg intraperitoneally daily, from one hour prior to transection), the “mechanical allodynia (0.008 g and 0.02 g von Frey filaments)” value is “significant decrease in mechanical allodynia; also recorded: robustly inhibited the development of mechanical allodynia in mice; also recorded: remained similar to the sham control mice at every time point for both filaments”.
